Assay results taken from ChEMBL document CHEMBL1144555, “Chemoenzymatic synthesis and antimicrobial activity evaluation of monoglucosyl diglycerides” (2007).
Converted amounts (≈) assume the structure as drawn.

Columns and labels:
Format in all cases: functional
Pseudomonas aeruginosa = assay: Antimicrobial activity against Pseudomonas aeruginosa ATCC 27753
[1] = test system: Mycobacterium tuberculosis; assay: Antimicrobial activity against Mycobacterium tuberculosis H190
Candida albicans = assay: Antimicrobial activity against Candida albicans
Kluyveromyces marxianus = assay: Antimicrobial activity against Candida pseudotropicalis
Staphylococcus aureus [2] = assay: Antimicrobial activity against Staphylococcus aureus ATCC 25923
Enterococcus faecalis = assay: Antimicrobial activity against Enterococcus faecalis ATCC 29212
Staphylococcus aureus [3] = assay: Antimicrobial activity against Staphylococcus aureus 87
Escherichia coli = assay: Antimicrobial activity against Escherichia coli ATCC 25922
[4] = test system: Mycobacterium tuberculosis; assay: Antimicrobial activity against Mycobacterium tuberculosis H160
[5] = test system: Mycobacterium tuberculosis; assay: Antimicrobial activity against Mycobacterium tuberculosis H37Rv
Staphylococcus aureus [6] = assay: Antimicrobial activity against Staphylococcus aureus 85
Staphylococcus aureus [7] = assay: Antimicrobial activity against Staphylococcus aureus ATCC 105487
Bacillus subtilis = assay: Antimicrobial activity against Bacillus subtilis ATCC 6633
Staphylococcus aureus [8] = assay: Antimicrobial activity against Staphylococcus aureus 52

Row | Structure (SMILES) | MIC (Pseudomonas aeruginosa) [µg/mL] | MIC [1] [µg/mL] | MIC (Candida albicans) [µg/mL] | MIC (Kluyveromyces marxianus) [µg/mL] | MIC (Staphylococcus aureus [2]) [µg/mL] | MIC (Enterococcus faecalis) [µg/mL] | MIC (Staphylococcus aureus [3]) [µg/mL] | MIC (Escherichia coli) [µg/mL] | MIC [4] [µg/mL] | MIC [5] [µg/mL] | MIC (Staphylococcus aureus [6]) [µg/mL] | MIC (Staphylococcus aureus [7]) [µg/mL] | MIC (Bacillus subtilis) [µg/mL] | MIC (Staphylococcus aureus [8]) [µg/mL]
1 | CC/C=C/C/C=C/C/C=C/CCCCCCCC(=O)OCC(CO[C@@H]1O[C@H](CO)[C@@H](O)[C@H](O)[C@H]1O)OC(=O)CCCCCCC/C=C/C/C=C/C/C=C/CC (some centres undefined) | > 128 | > 128 | > 128 | > 128 | > 128 | > 128 | > 128 | > 128 | > 128 | > 128 | > 128 | > 128 | > 128 | > 128
2 | CCCCCCCCCCCCCC(=O)OCC(CO[C@@H]1O[C@H](CO)[C@@H](O)[C@H](O)[C@H]1O)OC(=O)CCCCCCCCCCCCC (some centres undefined) | > 128 | > 128 | > 128 | > 128 | > 128 | > 128 | > 128 | > 128 | > 128 | > 128 | > 128 | > 128 | > 128 | > 128
3 | CCCCC/C=C/C/C=C/CCCCCCCC(=O)OCC(CO[C@@H]1O[C@H](CO)[C@@H](O)[C@H](O)[C@H]1O)OC(=O)CCCCCCC/C=C/C/C=C/CCCCC (mixture of isomers) | > 128 | 128 | > 128 | > 128 | > 128 | > 128 | 64 | > 128 | 64 | 64 | > 128 | > 128 | 128 | > 128
4 | CC/C=C/C/C=C/C/C=C/CCCCCCCC(=O)OC(COC(=O)CCCCCCC)CO[C@@H]1O[C@H](CO)[C@@H](O)[C@H](O)[C@H]1O (mixture of isomers) | > 128 | 64 | > 128 | > 128 | > 128 | > 128 | 64 | > 128 | 128 | 64 | > 128 | > 128 | 128 | > 128
5 | CC/C=C/C/C=C/C/C=C/CCCCCCCC(=O)OC(COC(=O)CCCCCCCCC)CO[C@@H]1O[C@H](CO)[C@@H](O)[C@H](O)[C@H]1O (mixture of isomers) | > 128 | > 128 | > 128 | > 128 | > 128 | > 128 | 32 | > 128 | > 128 | > 128 | 64 | > 128 | > 128 | > 128
6 | CCCCCCCC(=O)OCC(CO[C@@H]1O[C@H](CO)[C@@H](O)[C@H](O)[C@H]1O)OC(=O)CCCCCCC (mixture of isomers) | > 128 | 64 | > 128 | > 128 | 16 | 32 | 16 | > 128 | 64 | 64 | 16 | 32 | 16 | > 128
7 | CCCCCCCCCC(=O)OCC(CO[C@@H]1O[C@H](CO)[C@@H](O)[C@H](O)[C@H]1O)OC(=O)CCCCCCCCC (mixture of isomers) | > 128 | 64 | > 128 | > 128 | > 128 | > 128 | 64 | > 128 | 64 | 128 | > 128 | > 128 | > 128 | > 128
8 | CCCCCCCC/C=C/CCCCCCCC(=O)OCC(CO[C@@H]1O[C@H](CO)[C@@H](O)[C@H](O)[C@H]1O)OC(=O)CCCCCCC/C=C/CCCCCCCC (mixture of isomers) | > 128 | > 128 | > 128 | > 128 | > 128 | > 128 | > 128 | > 128 | > 128 | > 128 | > 128 | > 128 | > 128 | > 128
9 | CCCCC/C=C/C/C=C/CCCCCCCC(=O)OC(COC(=O)CCCCCCC)CO[C@@H]1O[C@H](CO)[C@@H](O)[C@H](O)[C@H]1O (mixture of isomers) | > 128 | 64 | > 128 | > 128 | > 128 | > 128 | 64 | > 128 | 128 | 64 | > 128 | > 128 | 128 | > 128
10 | CCCCCCCCCCCCCCCCCC(=O)OCC(CO[C@@H]1O[C@H](CO)[C@@H](O)[C@H](O)[C@H]1O)OC(=O)CCCCCCCCCCCCCCCCC (mixture of isomers) | > 128 | > 128 | > 128 | > 128 | > 128 | > 128 | > 128 | > 128 | > 128 | > 128 | > 128 | > 128 | > 128 | > 128
11 | CCCCCCCCCCCC(=O)OCC(CO[C@@H]1O[C@H](CO)[C@@H](O)[C@H](O)[C@H]1O)OC(=O)CCCCCCCCCCC (mixture of isomers) | > 128 | > 128 | > 128 | > 128 | > 128 | > 128 | > 128 | > 128 | > 128 | > 128 | > 128 | > 128 | > 128 | > 128
12 | CCCCCCCC/C=C/CCCCCCCC(=O)OC(COC(=O)CCCCCCC)CO[C@@H]1O[C@H](CO)[C@@H](O)[C@H](O)[C@H]1O (mixture of isomers) | > 128 | 64 | > 128 | > 128 | > 128 | > 128 | 64 | > 128 | 64 | 64 | > 128 | > 128 | 128 | > 128
13 | CCCCCCCC/C=C/CCCCCCCC(=O)OC(COC(=O)CCCCCCCCC)CO[C@@H]1O[C@H](CO)[C@@H](O)[C@H](O)[C@H]1O (mixture of isomers) | > 128 | > 128 | > 128 | > 128 | 8 | > 128 | > 128 | > 128 | > 128 | > 128 | 128 | > 128 | 32 | > 128
14 | CCCCC/C=C/C/C=C/CCCCCCCC(=O)OC(COC(=O)CCCCCCCCC)CO[C@@H]1O[C@H](CO)[C@@H](O)[C@H](O)[C@H]1O (mixture of isomers) | > 128 | > 128 | > 128 | > 128 | > 128 | 64 | > 32 | > 128 | > 128 | > 128 | 32 | 32 | 128 | > 128
15 | O=C(O)c1cn(C2CC2)c2cc(N3CCNCC3)c(F)cc2c1=O [CIPROFLOXACIN] | 1 (≈ 3.02 µM) | 0.5 (≈ 1.51 µM) | – | – | 0.5 (≈ 1.51 µM) | 1 (≈ 3.02 µM) | 0.5 (≈ 1.51 µM) | – | 0.5 (≈ 1.51 µM) | 0.5 (≈ 1.51 µM) | 0.5 (≈ 1.51 µM) | 0.25 (≈ 0.754 µM) | 0.25 (≈ 0.754 µM) | > 4
16 | Clc1ccc(COC(Cn2ccnc2)c2ccc(Cl)cc2Cl)c(Cl)c1 (centres undefined) [MICONAZOLE] | – | – | 8 (≈ 19.2 µM) | 0.5 (≈ 1.2 µM) | – | – | – | – | – | – | – | – | – | –
